The source of these data is article PMC4189182 (Journal of cardiac failure, 2014).

The conditions of data set [1]: human, in vivo.
The conditions of data set [2]: in vivo; cited from earlier work.

`CC[C@H](C)[C@@H]1NC(=O)[C@H](CCCNC(=N)N)NC(=O)[C@H](CC(=O)O)NC(=O)[C@H](CCSC)NC(=O)[C@H](CCCCN)NC(=O)[C@H](CCCNC(=N)N)NC(=O)CNC(=O)[C@H](Cc2ccccc2)NC(=O)[C@@H](NC(=O)CNC(=O)[C@H](CO)NC(=O)CNC(=O)[C@H](CCC(N)=O)NC(=O)[C@@H](NC(=O)[C@H](CCSC)NC(=O)[C@H](CCCCN)NC(=O)[C@@H]2CCCN2C(=O)[C@@H](N)CO)C(C)C)CSSC[C@@H](C(=O)N[C@@H](CCCCN)C(=O)N[C@H](C(=O)N[C@@H](CC(C)C)C(=O)N[C@@H](CCCN=C(N)N)C(=O)N[C@@H](CCCN=C(N)N)C(=O)N[C@@H](Cc2cnc[nH]2)C(=O)O)C(C)C)NC(=O)CNC(=O)[C@H](CC(C)C)NC(=O)CNC(=O)[C@H](CO)NC(=O)[C@H](CO)NC(=O)[C@H](CO)NC(=O)[C@H](CO)NC1=O` [nesiritide] displayed a Halflife in data set [1] of 14.4 min. Besides, in data set [1] (iv), the “increase in Clearance associated with genotype at rs6798179 (MME)” value is reported as “roughly 50%”, the “increase in K associated with genotype at rs6798179 (MME)” value is reported as “roughly 50%”, the “range of Adjusted BNP Clearance” value lay within 0.1 to 67 mL/min and the “range of BNP Clearance” value was in the range of 0.027 to 7.25 mL/min. Further, in data set [1] (iv), the “range of Half-life” value was 6.6 to 56.4 min, the “range of K” value is listed as 0.002-9.7, the “range of ΔBNP” value fell in the range of 14 to 7900 pg/mL and the “smaller change in BNP due to infusion associated with genotype at rs6798179 (MME)” value is given as approximately 40%. Further, the “previously reported average half-life” value in data set [2] was “roughly 18 minutes”.
